This note sets out measurements from patent US11285133B2, “2- or 3-imidazolines as carbapenemases inhibitors” (priority 2017, dated 2022).

Common to all, as to assay type: biochemical
For one experiment, the target named is OXA-48 Enzyme (Klebsiella pneumoniae, UniProt Q6XEC0). The experiment in a line: Imipenem hydrolysis monitored by UV absorbance slope, OXA-48 enzyme. As to conditions: for inhibition at 10 µM: read-out: OXA-48 Enzyme Inhibition at 10 μM; for OXA-48 Enzyme Inhibition at 10 μM: 10 μM compound. Here is the method:
(§1) These tests are conducted by comparing UV absorbance slope measurements of impenem alone, and then imipenem with the concerned 3-imidazolines at given concentrations in the presence of the enzyme. It was thus possible to monitor the hydrolysis of imipenem. Lower the value of the slope, the higher is the percentage of inhibition of the enzyme.

The target in another experiment is NDM-1 Enzyme (Klebsiella pneumoniae, UniProt C7C422). The experiment in a line: Imipenem hydrolysis monitored by UV absorbance slope, NDM-1 enzyme. As to conditions: 10 μM compound, starred cells in the IC50 column. Here is the method:
as §1

The next experiment concerns the target KPC Enzyme (Klebsiella pneumoniae, UniProt Q9F663). The experiment in a line: Imipenem hydrolysis monitored by UV absorbance slope, KPC enzyme. As to conditions: for KPC Enzyme percentage of inhibition at 10 μM: 10 μM compound, starred cells in the IC50 column, ND = Not Detectable (at 10 μM); for inhibition at 10 µM: read-out: KPC Enzyme percentage of inhibition at 10 μM. Here is the method: as §1

Marks after values point to notes of the source that are not given here.

KPC Enzyme, sequence (Q9F663 25-293, looked up): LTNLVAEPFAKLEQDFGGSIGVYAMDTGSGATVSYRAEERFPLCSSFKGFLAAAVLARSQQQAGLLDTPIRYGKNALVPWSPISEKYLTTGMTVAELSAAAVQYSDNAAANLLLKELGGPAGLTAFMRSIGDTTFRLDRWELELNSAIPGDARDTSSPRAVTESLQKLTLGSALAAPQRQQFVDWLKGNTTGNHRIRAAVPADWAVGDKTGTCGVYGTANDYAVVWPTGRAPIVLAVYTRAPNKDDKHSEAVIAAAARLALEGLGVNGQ
OXA-48 Enzyme, sequence (Q6XEC0 23-265 limits assumed): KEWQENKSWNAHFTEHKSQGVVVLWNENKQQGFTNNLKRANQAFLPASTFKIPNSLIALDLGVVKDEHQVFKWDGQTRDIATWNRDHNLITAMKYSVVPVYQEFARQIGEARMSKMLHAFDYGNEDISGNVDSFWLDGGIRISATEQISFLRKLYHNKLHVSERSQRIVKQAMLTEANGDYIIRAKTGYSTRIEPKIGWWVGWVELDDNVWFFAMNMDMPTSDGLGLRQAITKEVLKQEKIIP
NDM-1 Enzyme, sequence (C7C422 29-270, looked up, species assumed): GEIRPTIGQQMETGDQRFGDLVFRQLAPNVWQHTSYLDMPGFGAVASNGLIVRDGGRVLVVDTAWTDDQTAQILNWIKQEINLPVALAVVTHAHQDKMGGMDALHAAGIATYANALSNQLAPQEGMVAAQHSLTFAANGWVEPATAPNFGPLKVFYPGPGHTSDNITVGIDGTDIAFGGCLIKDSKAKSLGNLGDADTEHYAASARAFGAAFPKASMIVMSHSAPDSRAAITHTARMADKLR

In general, inhibition refers to the change of the read-out against control, counted positive when it falls. With `COc1ccc(C2N=C(c3ccccc3)C(C)N2c2ccccc2)cc1` (centres unmarked) [Compound 1], the inhibition at 10 µM at OXA-48 Enzyme amounted to 9%.
As to `COc1ccc(C2N=C(c3ccccc3)C(C)N2c2ccc(I)cc2)cc1` (centres unmarked) [Compound 2], on OXA-48 Enzyme, the inhibition at 10 µM is 9%.
With `COc1ccc(C2N=C(c3ccccc3)C(C)N2c2ccc(OC)cc2)cc1` (centres unmarked) [Compound 3], the inhibition at 10 µM at OXA-48 Enzyme was determined as 11%.
On to `COc1ccc(C2N=C(c3ccccc3)C(C)N2c2ccc(Cl)cc2)cc1` (centres unmarked) [Compound 4], for which, at OXA-48 Enzyme, the “OXA-48 Enzyme Inhibition at 10 μM” value is listed as “Not Detectable”.
As for `COc1ccc(C2N=C(c3ccccc3)C(C)N2c2ccc(C(F)(F)F)cc2)cc1` (centres unmarked) [Compound 5], on OXA-48 Enzyme, the inhibition at 10 µM was 19%.
Regarding `COc1ccc(C2N=C(c3ccccc3)C(C)N2c2ccc(Br)cc2)cc1` (centres unmarked) [Compound 6], the inhibition at 10 µM on NDM-1 Enzyme (read-out: NDM-1 Enzyme percentage of inhibition at 10 μM) was 20%. Also, at OXA-48 Enzyme, the “OXA-48 Enzyme Inhibition at 10 μM” value is “Not Detectable”.
Take `COc1ccc(C2=NC(c3ccc(OC)cc3)N(c3ccc(OC)cc3)C2C)cc1` (centres unmarked) [Compound 7]: at OXA-48 Enzyme, the “OXA-48 Enzyme Inhibition at 10 μM” value is recorded as “Not Detectable”. The “KPC Enzyme percentage of inhibition at 10 μM” value on KPC Enzyme is recorded as 18%*.
Turning to `COc1ccc(C2=NC(c3ccccc3)N(c3ccccc3)C2C)cc1` (centres unmarked) [Compound 8], the “OXA-48 Enzyme Inhibition at 10 μM” value on OXA-48 Enzyme was “Not Detectable”. In addition, the “KPC Enzyme percentage of inhibition at 10 μM” value on KPC Enzyme is recorded as 23%*.
In the case of `COc1ccc(C2=NC(c3ccc(OC)cc3)N(c3ccccc3)C2C)cc1` (centres unmarked) [Compound 9], the “OXA-48 Enzyme Inhibition at 10 μM” value on OXA-48 Enzyme is “Not Detectable”. Moreover, the inhibition at 10 µM on KPC Enzyme was found to be 40%.
In the case of `COc1ccc(C2=NC(c3ccccc3)N(c3ccc(OC)cc3)C2C)cc1` (centres unmarked) [Compound 11], the “NDM-1 Enzyme percentage of inhibition at 10 μM” value on NDM-1 Enzyme is reported as 20%*. Moreover, on OXA-48 Enzyme, the “OXA-48 Enzyme Inhibition at 10 μM” value was “Not Detectable”.
As to `COc1ccc(N2C(C)C(c3ccc(Cl)cc3)=NC2c2ccc(Cl)cc2)cc1` (centres unmarked) [Compound 12], the “OXA-48 Enzyme Inhibition at 10 μM” value at OXA-48 Enzyme was “Not Detectable”. Besides, at KPC Enzyme, the inhibition at 10 µM was 50%.
Consider `CC1C(c2ccccc2)=NC(c2ccccc2)N1c1ccccc1` (centres unmarked) [Compound 13], for which the “OXA-48 Enzyme Inhibition at 10 μM” value on OXA-48 Enzyme is recorded as “Not Detectable”. Also, the “KPC Enzyme percentage of inhibition at 10 μM” value on KPC Enzyme is recorded as 23%*.
With `CC1C(c2ccccc2)=NC(c2ccccc2)N1c1ccc(I)cc1` (centres unmarked) [Compound 14], the “OXA-48 Enzyme Inhibition at 10 μM” value at OXA-48 Enzyme was “Not Detectable”.
As to `CC1C(c2ccccc2)=NC(c2ccccc2)N1c1ccc(Br)cc1` (centres unmarked) [Compound 15], on OXA-48 Enzyme, the “OXA-48 Enzyme Inhibition at 10 μM” value is reported as “Not Detectable”.
Consider `CC1C(c2ccccc2)=NC(c2ccccc2)N1c1ccc(Cl)cc1` (centres unmarked) [Compound 16], for which the “OXA-48 Enzyme Inhibition at 10 μM” value on OXA-48 Enzyme is recorded as “Not Detectable”. Also, the “KPC Enzyme percentage of inhibition at 10 μM” value at KPC Enzyme amounted to 18%*.
Take `COc1ccc(N2C(C)C(c3ccccc3)=NC2c2ccccc2)cc1` (centres unmarked) [Compound 17]: the “OXA-48 Enzyme Inhibition at 10 μM” value at OXA-48 Enzyme was “Not Detectable”. In addition, the “KPC Enzyme percentage of inhibition at 10 μM” value at KPC Enzyme came out at 17%*.
For `CC1C(c2ccc(Cl)cc2)=NC(c2ccc(Cl)cc2)N1c1ccccc1` (centres unmarked) [Compound 18], the “OXA-48 Enzyme Inhibition at 10 μM” value at OXA-48 Enzyme was “Not Detectable”. Moreover, the “KPC Enzyme percentage of inhibition at 10 μM” value on KPC Enzyme stood at 14%*.
Consider `CC1C(c2ccc(Cl)cc2)=NC(c2ccc(Cl)cc2)N1c1ccc(Cl)cc1` (centres unmarked) [Compound 19], for which the “OXA-48 Enzyme Inhibition at 10 μM” value on OXA-48 Enzyme was found to be 50%.
Turning to `C/C(=N\c1ccccc1)C1(c2ccc(Cl)cc2)N=C(c2ccc(Cl)cc2)N(c2ccccc2)C1C` (centres unmarked) [Compound 24], on OXA-48 Enzyme, the inhibition at 10 µM was 38%.
Consider `C/C(=N\c1ccccc1)C1(c2ccccc2)N=C(c2ccccc2)N(c2ccccc2)C1C` (centres unmarked) [Compound 25], for which the “OXA-48 Enzyme Inhibition at 10 μM” value on OXA-48 Enzyme is given as “Not Detectable”. Besides, on KPC Enzyme, the inhibition at 10 µM was found to be 30%.
Take `C/C(=N\c1ccc(Cl)cc1)C1(c2ccccc2)N=C(c2ccccc2)N(c2ccc(Cl)cc2)C1C` (centres unmarked) [Compound 26]: the inhibition at 10 µM at OXA-48 Enzyme is 22%.
With `C/C(=N\c1ccc(Br)cc1)C1(c2ccccc2)N=C(c2ccccc2)N(c2ccc(Br)cc2)C1C` (centres unmarked) [Compound 27], the inhibition at 10 µM at OXA-48 Enzyme came to 38%.
Consider `C/C(=N\c1ccc(Cl)cc1)C1(c2ccc(Cl)cc2)N=C(c2ccc(Cl)cc2)N(c2ccc(Cl)cc2)C1C` (centres unmarked) [Compound 28], for which the inhibition at 10 µM on OXA-48 Enzyme was 31%.
On to `C/C(=N\c1ccc(Br)cc1)C1(c2ccc(Cl)cc2)N=C(c2ccc(Cl)cc2)N(c2ccc(Br)cc2)C1C` (centres unmarked) [Compound 29], for which, on OXA-48 Enzyme, the inhibition at 10 µM came out at 36%.
